The record followed here is PubChem BioAssay (NCI).

The structures appear in SMILES notation. Several values for one entry are separate records, joined by “and”; a condition that tells them apart may be missing. Equal values may be shown once.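 Grown in 96-well plates, cells were treated for 48 hours with each compound at five concentrations. Insufficient inhibition: endpoint recorded as highest concentration tested. GI50: concentration for 50% inhibition of growth. TGI: concentration producing complete growth inhibition.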

Holding throughout (experiment): DTP human tumour cell line panel, 48 h
For experiment [1], the system named is HS 578T breast.
For experiment [2], the system named is NCI-H226 lung.
Experiment [3] relates to NCI-H522 lung.
For experiment [4], the system named is NCI/ADR-RES ovarian.
Experiment [5] has as its system SF-295 CNS.
Experiment [6] has as its system SK-MEL-28 melanoma.
For experiment [7], the system named is SK-OV-3 ovarian.
For experiment [8], the system named is SN12C renal.
For experiment [9], the system named is SR leukemia.
The test system of experiment [10] is UO-31 renal.

Regarding `O=C(NCCNC(=O)c1ccc(F)cc1)Nc1ccc(-n2cc(-c3ccncc3)c(-c3ccc(Cl)c(O)c3)n2)cc1`, the GI50 (in general, the concentration at which growth is held to half of that of the control) in experiment [1] is 0.462 µM; in [2], 0.809 µM; in experiment [3] it was 0.306 µM; in experiment [4], more than 100 µM; in experiment [5] it was 0.354 µM; in experiment [6], 1.38 µM. Further, the GI50 is 0.746 µM in [7], 0.509 µM in experiment [8], 0.299 µM in experiment [9] and 2.4 µM in experiment [10]. In addition, the total growth inhibition concentration (TGI) (usually the concentration at which net growth stops) in [1] was more than 100 µM; in experiment [2], 6.48 µM; in experiment [3], 2.94 µM; in [4] it was more than 100 µM; in experiment [5], 1.7 µM; in experiment [6] it was more than 100 µM. The TGI was 48.5 µM in experiment [7], more than 100 µM in experiment [8], 2.62 µM in experiment [9] and more than 100 µM in experiment [10].
As for `O=C(c1ccccc1)c1ccc(O)c2ncccc12`, the GI50 in experiment [1] is 5.08 µM; in experiment [2], 9.45 µM; in [3], 2.51 µM; in experiment [4], 0.428 µM; in experiment [5], 3.78 µM; in [6] it was 14.6 µM. The GI50 in experiment [7] is 6.02 µM; in experiment [8] it was 2.46 µM; in [9], 1.15 µM; in experiment [10], 1.28 µM. The TGI was 72 µM in [1]; 41.8 µM in [2]; 8.3 µM in experiment [3]; 6.03 µM in experiment [4]; more than 100 µM in experiment [5]; more than 100 µM in experiment [6]. Moreover, the TGI in experiment [7] was 19.1 µM; in experiment [8] it was 14.8 µM; in experiment [9], more than 100 µM; in experiment [10], 13.5 µM.
`Clc1ccc(N/N=C(\c2ccccc2)c2ccccn2)nc1`: the GI50 is 0.781 µM in experiment [1]; 0.197 µM in [2]; 0.0805 µM in experiment [3]; 0.109 µM in experiment [4]; 0.506 µM in experiment [5]; 0.335 µM in experiment [6]. Moreover, the GI50 in [8] is 0.251 µM; in experiment [9] it was 0.0769 µM; in experiment [10] it was 0.163 µM. Further, the TGI in experiment [2] is 5.16 µM and 0.736 µM; in experiment [3], 2.77 µM; in [5] it was > 53.6 µM and 17.7 µM; in [6], more than 100 µM; in [7] it was more than 100 µM; in experiment [8], > 49.2 µM and 33.1 µM. For the same molecule, the TGI in [9] is 3.5 µM; in experiment [10], 2.38 µM and 0.817 µM.
On to `CC(=O)[O][Hg][CH2]C1(C)COC(C)([CH2][Hg][O]C(C)=O)CO1` (configuration not stated), for which the GI50 in experiment [1] was 2.61 µM; in experiment [2] it was 6.16 µM; in experiment [3], 12.1 µM; in experiment [4] it was 19.1 µM; in experiment [5] it was 3.62 µM; in [6], 1.64 µM. The GI50 in [7] was 17.5 µM; in [8], 0.887 µM; in experiment [9], 0.607 µM; in [10] it was 5.07 µM. In addition, the total growth inhibition concentration (TGI) was 16 µM in experiment [1]; 14.2 µM in experiment [2]; 33 µM in [3]; 46 µM in experiment [4]; 8.44 µM in [5]; 3.06 µM in [6]. Further, the TGI in experiment [7] was 31.8 µM; in [8], 4.49 µM; in experiment [9], 3.59 µM; in [10], 9.83 µM.
Turning to `CCOc1ccc(NC(=O)c2cc3ccccc3cc2O)cc1`, the GI50 in experiment [1] was 59.8 µM; in experiment [2] it was 64.3 µM; in experiment [3] it was 59.1 µM; in experiment [4] it was 51.3 µM; in experiment [5], 34.6 µM; in [6], more than 100 µM. The GI50 is 27.8 µM in [7], more than 100 µM in experiment [8], 22.8 µM in [9] and 49.3 µM in experiment [10]. The concentration for total growth inhibition (TGI) in experiment [1], in experiment [2], in experiment [3], in experiment [4], in [5] and in [6] was more than 100 µM in each case. In addition, the TGI in [7], in [8], in [9] and in [10] was more than 100 µM throughout.
Turning to `CNC12C3C4C1C1C2C3C41C(=O)N[C@H](C(=O)N(C)[C@H](C[C@@H](OC(C)=O)c1nc(C(=O)N[C@@H](Cc2ccccc2)C[C@H](C)C(=O)OC)cs1)C(C)C)C1CC1` (some centres not stated), the GI50 in experiment [1] is 0.354 µM; in [2], 1.73 µM; in experiment [3], 0.041 µM; in [4], more than 15 µM; in [5], 0.343 µM; in experiment [6], 2.13 µM. Further, the GI50 was 0.714 µM in experiment [7], 0.612 µM in experiment [8], 0.0179 µM in experiment [9] and 2.25 µM in experiment [10]. Also, the concentration for total growth inhibition (TGI) is more than 10.3 µM in [1]; more than 14 µM in experiment [2]; 0.524 µM in experiment [3]; more than 15 µM in experiment [4]; 1.31 µM in [5]; more than 15 µM in experiment [6]. In addition, the TGI in experiment [7] was more than 15 µM; in experiment [8] it was more than 15 µM; in experiment [9], more than 7.82 µM; in [10], more than 15 µM.
For `CN(N=O)C(=O)Nc1ccc(C(=O)O)cc1`, the concentration for total growth inhibition (TGI) in experiment [1], in experiment [2], in [3], in experiment [4], in experiment [5] and in [6] was more than 100 µM in each case. The TGI in experiment [7], in [8], in [9] and in experiment [10] was more than 100 µM throughout.
Turning to `O=C(O)c1cc2cc(O)ccc2[nH]1`, the GI50 in experiment [1], in experiment [2], in [3], in experiment [4], in experiment [5] and in [6] was more than 100 µM each time. For the same molecule, the GI50 in [7], in experiment [8], in experiment [9] and in [10] was more than 100 µM each time. Further, the concentration for total growth inhibition (TGI) in experiment [1], in [2], in [3], in experiment [4], in experiment [5] and in [6] was more than 100 µM throughout. The concentration for total growth inhibition (TGI) in [7], in experiment [8], in [9] and in experiment [10] was more than 100 µM in each case.
